Tests used:
ABCC4 (MRP4) = target: T1, ABCC4 (MRP4) (Homo sapiens, UniProt O15439); assay: ABCC4 vesicular transport (DHEAS), HEK293 inverted membrane vesicles; assay type: biochemical; conditions: concentrations up to 200 μM
T1 construct: purchased Solvo Biotechnology, Budapest; host or cells: HEK293
T1 sequence (O15439 1-1325): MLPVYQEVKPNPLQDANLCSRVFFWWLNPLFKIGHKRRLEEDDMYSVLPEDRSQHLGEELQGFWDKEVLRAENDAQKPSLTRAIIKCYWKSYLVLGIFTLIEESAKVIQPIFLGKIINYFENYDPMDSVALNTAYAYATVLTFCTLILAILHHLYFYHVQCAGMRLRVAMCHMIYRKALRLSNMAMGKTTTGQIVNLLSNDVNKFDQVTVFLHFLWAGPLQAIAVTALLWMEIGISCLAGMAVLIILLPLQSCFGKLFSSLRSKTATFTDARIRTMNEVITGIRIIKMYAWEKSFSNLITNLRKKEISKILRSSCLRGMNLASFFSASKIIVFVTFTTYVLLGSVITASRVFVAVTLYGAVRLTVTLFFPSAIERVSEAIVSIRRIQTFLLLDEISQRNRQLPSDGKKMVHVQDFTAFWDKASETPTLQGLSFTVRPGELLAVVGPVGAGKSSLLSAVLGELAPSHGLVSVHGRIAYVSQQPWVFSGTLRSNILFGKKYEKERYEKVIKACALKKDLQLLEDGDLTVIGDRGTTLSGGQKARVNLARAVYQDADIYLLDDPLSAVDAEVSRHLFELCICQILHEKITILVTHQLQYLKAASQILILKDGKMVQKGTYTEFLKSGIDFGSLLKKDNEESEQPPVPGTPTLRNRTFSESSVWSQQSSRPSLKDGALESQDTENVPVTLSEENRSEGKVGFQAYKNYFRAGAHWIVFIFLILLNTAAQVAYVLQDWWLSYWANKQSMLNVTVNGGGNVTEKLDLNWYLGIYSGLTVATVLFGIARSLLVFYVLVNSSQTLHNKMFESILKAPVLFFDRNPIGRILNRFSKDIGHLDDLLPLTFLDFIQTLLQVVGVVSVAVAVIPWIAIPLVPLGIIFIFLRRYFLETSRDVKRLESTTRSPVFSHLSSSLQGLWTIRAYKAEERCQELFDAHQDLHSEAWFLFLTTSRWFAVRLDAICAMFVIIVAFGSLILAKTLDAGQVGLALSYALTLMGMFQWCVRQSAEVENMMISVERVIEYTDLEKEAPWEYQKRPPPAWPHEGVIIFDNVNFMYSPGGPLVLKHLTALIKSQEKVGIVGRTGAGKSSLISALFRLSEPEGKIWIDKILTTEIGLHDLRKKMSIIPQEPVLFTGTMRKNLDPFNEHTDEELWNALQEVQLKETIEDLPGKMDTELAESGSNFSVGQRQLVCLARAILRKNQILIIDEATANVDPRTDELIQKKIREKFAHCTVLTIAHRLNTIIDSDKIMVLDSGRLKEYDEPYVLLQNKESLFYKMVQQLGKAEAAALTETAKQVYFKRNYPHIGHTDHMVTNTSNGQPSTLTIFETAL

ENT2 = target: T2, ENT2 (Homo sapiens, UniProt Q14542); assay: ENT2-mediated adenosine uptake in ENT2-MDCKII cells; assay type: cell-based
T2 construct: expressed in transfected cells; host or cells: MDCKII (lentiviral transduction)
T2 sequence (Q14542 1-456): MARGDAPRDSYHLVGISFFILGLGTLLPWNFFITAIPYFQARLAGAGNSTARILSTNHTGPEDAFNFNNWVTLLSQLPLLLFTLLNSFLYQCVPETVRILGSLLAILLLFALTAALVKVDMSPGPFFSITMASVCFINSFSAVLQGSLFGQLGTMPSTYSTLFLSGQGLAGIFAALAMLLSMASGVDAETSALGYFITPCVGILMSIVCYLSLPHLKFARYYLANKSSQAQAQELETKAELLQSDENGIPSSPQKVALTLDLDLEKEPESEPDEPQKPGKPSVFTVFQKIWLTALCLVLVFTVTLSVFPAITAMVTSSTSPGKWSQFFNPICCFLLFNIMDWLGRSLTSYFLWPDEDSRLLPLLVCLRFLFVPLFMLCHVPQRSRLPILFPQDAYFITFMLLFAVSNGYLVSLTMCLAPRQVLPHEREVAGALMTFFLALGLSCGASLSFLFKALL
Experimental: ENT and CNT transporter interactions were investigated in transporter-overexpressing cell lines. Madin-Darby Canine Kidney II (MDCKII) cell lines overexpressing the human uptake transporters CNT1, CNT2, ENT1, and ENT2 were generated via lentiviral transduction. Cell cultures were maintained in Dulbecco’s modified Eagle’s medium (DMEM) and 4500 mg/L of glucose supplemented with GlutaMax^TM, 10% v/v fetal bovine serum (FBS), 100 units/mL penicillin, and 100 µg/mL streptomycin (all from Gibco/ThermoFisher, Waltham, MA, USA) at 37 °C in 5% CO2 at 95% humidity. For uptake inhibition assays, transporter-expressing cells and mock-transduced control cells were seeded on 96-well tissue culture plates at a density of 1 × 10^5 cells/well. […] To determine the amounts of accumulated radiolabeled substrates, cell lysates mixed with a liquid scintillation cocktail were measured with a MicroBeta2 microplate counter (PerkinElmer, Singapore).
Transporter-specific accumulation of the probe substrate was calculated using the following formula: ACCSpec = ACCTRP − ACCMock, where ACCTRP is the accumulation of the probe in transporter-expressing cells and ACCMock is the accumulation of the probe in control cells. Relative transporter-specific accumulation values were calculated as percentages of the control value (with vehicle only).

SARS-CoV-2 = system: SARS-CoV-2; set-up: method as in PMID 34726479; conditions: cell culture tests; cited from earlier work

Compound | effect on ATP-dependent DHEAS uptake by ABCC4/MRP4 (ABCC4 (MRP4)) | inhibition of adenosine uptake by ENT2 (ENT2) | antiviral activity against SARS-CoV-2 (SARS-CoV-2)
O=c1nc(NO)ccn1[C@@H]1O[C@H](CO)[C@@H](O)[C@H]1O [EIDD-1931] | no significant effects |  | 
CC(C)C(=O)OC[C@H]1O[C@@H](n2ccc(NO)nc2=O)[C@H](O)[C@@H]1O [EIDD-2801, Molnupiravir] | no significant effects | only mildly inhibited | 
CC(C)(C)[C@H](NC(=O)C(F)(F)F)C(=O)N1C[C@H]2[C@@H]([C@H]1C(=O)N[C@H](C#N)C[C@@H]1CCNC1=O)C2(C)C [Nirmatrelvir] |  |  | nanomolar range
